Assay results published in article PMC7924852, “The Emericellipsins A–E from an Alkalophilic Fungus Emericellopsis alkalina Show Potent Activity against Multidrug-Resistant Pathogenic Fungi” (Journal of Fungi, 2021).
Values after ≈ are worked out from the molar mass of the structure shown. Where two headings read alike, the source gives them in different places. Starred links: 1 amine or outer side, 2 acyl side, 3 side chain; linkers in the order of their positions; H or OH if unused. Positions of bridges follow the written chain, without caps; N, C: chain ends. Non-standard residues stand in square brackets, D forms with d. Residues, ends and D or L forms follow the SMILES beside them. *: point of attachment. pTerphenylCO(4''-OnC5H11) = CCCCCOc1ccc(-c2ccc(-c3ccc(C(=O)*)cc3)cc2)cc1; Orn(4R-OH,5R-OH) = O=C([C@H](C[C@@H](O)[C@@H](O)N[*:3])N[*:1])[*:2]; hTyr(3S-OH,4S-OH) = N[C@H](C(=O)O)[C@H](O)[C@@H](O)c1ccc(O)cc1; Pro(3S-OH,4S-Me) = C[C@H]1CN[C@H](C(=O)O)[C@H]1O; Hyp = O=C(O)[C@@H]1C[C@@H](O)CN1

How the values were obtained:
[1] = test system: Aspergillus niger 1133m; assay: Sensititre YeastOne antifungal susceptibility test; type: cell-based
[2] = test system: A. fumigatus 390m; assay: Sensititre YeastOne antifungal susceptibility test; type: cell-based; conditions: Aspergillus fumigatus
[3] = test system: A. terreus 497; assay: Sensititre YeastOne antifungal susceptibility test; type: cell-based; conditions: Aspergillus terreus
[4] = test system: Candida albicans 1402; assay: Sensititre YeastOne antifungal susceptibility test; type: cell-based
[5] = test system: C. glabrata 1402; assay: Sensititre YeastOne antifungal susceptibility test; type: cell-based; conditions: Nakaseomyces glabratus
[6] = test system: C. krusei 1447; assay: Sensititre YeastOne antifungal susceptibility test; type: cell-based; conditions: Pichia kudriavzevii
[7] = test system: C. tropicalis 156; assay: Sensititre YeastOne antifungal susceptibility test; type: cell-based; conditions: Candida tropicalis
[8] = test system: C. parapsilosis 571; assay: Sensititre YeastOne antifungal susceptibility test; type: cell-based; conditions: Lodderomyces parapsilosis
[9] = test system: Cryptococcus neoformans 297; assay: Sensititre YeastOne antifungal susceptibility test; type: cell-based
[10] = test system: Cr. laurentii 325m; assay: Sensititre YeastOne antifungal susceptibility test; type: cell-based; conditions: Papiliotrema laurentii
[11] = test system: Candida albicans 1402; assay: Broth microdilution MIC and MFC (CLSI); type: cell-based
[12] = test system: C. glabrata 1402; assay: Broth microdilution MIC and MFC (CLSI); type: cell-based; conditions: Nakaseomyces glabratus
[13] = test system: C. krusei 1447; assay: Broth microdilution MIC and MFC (CLSI); type: cell-based; conditions: Pichia kudriavzevii
[14] = test system: C. tropicalis 156; assay: Broth microdilution MIC and MFC (CLSI); type: cell-based; conditions: Candida tropicalis
[15] = test system: C. parapsilosis 571; assay: Broth microdilution MIC and MFC (CLSI); type: cell-based; conditions: Lodderomyces parapsilosis
[16] = test system: Cryptococcus neoformans 297; assay: Broth microdilution MIC and MFC (CLSI); type: cell-based; conditions: Cryptococcus neoformans 297 clinical isolate; RPMI 1640 pH 7.0, 35 °C, 24 h; read-out: MIC
[17] = test system: C. laurentii 325m; assay: Broth microdilution MIC and MFC (CLSI); type: cell-based, Cr. laurentii; conditions: Papiliotrema laurentii; C. laurentii 325m clinical isolate; RPMI 1640 pH 7.0, 35 °C, 24 h; read-out: MIC

In the case of CCCCCOc1ccc(-c2ccc(-c3ccc(C(=O)N[C@H]4C[C@@H](O)[C@@H](O)NC(=O)[C@@H]5[C@@H](O)[C@@H](C)CN5C(=O)[C@H]([C@@H](C)O)NC(=O)[C@H]([C@H](O)[C@@H](O)c5ccc(O)cc5)NC(=O)[C@@H]5C[C@@H](O)CN5C(=O)[C@H]([C@@H](C)O)NC4=O)cc3)cc2)cc1 [AND, anidulafungin] ({pTerphenylCO(4''-OnC5H11)}-[Orn(4R-OH,5R-OH)]T[Hyp][hTyr(3S-OH,4S-OH)]T[Pro(3S-OH,4S-Me)]; lactam 1-C), the MIC ([1]; Aspergillus niger, 1133M) is reported as > 8 µg/mL, the MIC ([2]; 390M) is reported as > 8 µg/mL and the MIC [3]; 497 is reported as > 8 µg/mL. The MIC ([4]; Candida albicans, 1402) was 0.06 µg/mL (≈ 0.0526 µM), the MIC [5]; 1402 was 0.06 µg/mL (≈ 0.0526 µM) and the MIC [6]; 1447 was 0.03 µg/mL (≈ 0.0263 µM). The MIC [7]; 156 was 0.12 µg/mL (≈ 0.105 µM), the MIC [8]; 571 was 2 µg/mL (≈ 1.75 µM) and the MIC ([9]; Cryptococcus neoformans, 297) was > 8 µg/mL. For the same compound, the MIC ([10]; 325M) was > 8 µg/mL.

With CC[C@H](C)C[C@H](C)CCCCCCCCC(=O)N[C@H]1C[C@@H](O)[C@@H](NCCN)NC(=O)[C@@H]2[C@@H](O)CCN2C(=O)[C@H]([C@H](O)CCN)NC(=O)[C@H]([C@H](O)[C@@H](O)c2ccc(O)cc2)NC(=O)[C@@H]2C[C@@H](O)CN2C(=O)[C@H]([C@@H](C)O)NC1=O [CAS, Caspofungin] the MFC ([11]; Candida albicans 1402, lowest concentration causing 95% death, plated on PDA agar, read-out: MFC) was 0.5 µg/mL (≈ 0.457 µM), the MIC ([11]; Candida albicans 1402 clinical isolate, RPMI 1640 pH 7.0, 35 °C, 24 h, read-out: MIC) was 0.06 µg/mL (≈ 0.0549 µM) and the MFC ([12]; C. glabrata 1402, lowest concentration causing 95% death, read-out: MFC) was 0.5 µg/mL (≈ 0.457 µM). For the same compound, the MIC ([12]; C. glabrata 1402 clinical isolate, RPMI 1640 pH 7.0, 35 °C, 24 h, read-out: MIC) was 0.06 µg/mL (≈ 0.0549 µM), the MFC ([13]; C. krusei 1447, lowest concentration causing 95% death, read-out: MFC) was 1 µg/mL (≈ 0.915 µM) and the MIC ([13]; C. krusei 1447 clinical isolate, RPMI 1640 pH 7.0, 35 °C, 24 h, read-out: MIC) was 0.25 µg/mL (≈ 0.229 µM). The MFC ([14]; C. tropicalis 156, lowest concentration causing 95% death, read-out: MFC) was 0.5 µg/mL (≈ 0.457 µM), the MIC ([14]; C. tropicalis 156 clinical isolate, RPMI 1640 pH 7.0, 35 °C, 24 h, read-out: MIC) was 0.06 µg/mL (≈ 0.0549 µM) and the MFC ([15]; C. parapsilosis 571, lowest concentration causing 95% death, read-out: MFC) was 1 µg/mL (≈ 0.915 µM). The MIC ([15]; C. parapsilosis 571 clinical isolate, RPMI 1640 pH 7.0, 35 °C, 24 h, read-out: MIC) was 1 µg/mL (≈ 0.915 µM), the MIC [16] was > 64 µg/mL and the MIC [17] was 16 µg/mL (≈ 14.6 µM). The MIC ([1]; Aspergillus niger, 1133M) was > 16 µg/mL, the MIC ([2]; 390M) was > 16 µg/mL and the MIC [3]; 497 was > 16 µg/mL. It also gave an MIC ([4]; Candida albicans, 1402) of 0.06 µg/mL (≈ 0.0549 µM), an MIC [5]; 1402 of 0.06 µg/mL (≈ 0.0549 µM) and an MIC [6]; 1447 of 0.25 µg/mL (≈ 0.229 µM). It also gave an MIC [7]; 156 of 0.06 µg/mL (≈ 0.0549 µM), an MIC [8]; 571 of 1 µg/mL (≈ 0.915 µM) and an MIC ([9]; Cryptococcus neoformans, 297) of 16 µg/mL (≈ 14.6 µM). The MIC ([10]; 325M) was 16 µg/mL (≈ 14.6 µM).

With Nc1[nH]c(=O)ncc1F [Emi 5-FC, flucytosine] the MIC ([1]; Aspergillus niger, 1133M) was > 64 µg/mL, the MIC ([2]; 390M) was > 64 µg/mL and the MIC [3]; 497 was > 64 µg/mL. It also gave an MIC ([4]; Candida albicans, 1402) of 0.06 µg/mL (≈ 0.465 µM), an MIC [5]; 1402 of 0.06 µg/mL (≈ 0.465 µM) and an MIC [6]; 1447 of 32 µg/mL (≈ 248 µM). It also gave an MIC [7]; 156 of 0.06 µg/mL (≈ 0.465 µM), an MIC [8]; 571 of 0.5 µg/mL (≈ 3.87 µM) and an MIC ([9]; Cryptococcus neoformans, 297) of 8 µg/mL (≈ 62 µM). For the same compound, the MIC ([10]; 325M) was 4 µg/mL (≈ 31 µM).

CCC(C)n1ncn(-c2ccc(N3CCN(c4ccc(OCC5COC(Cn6cncn6)(c6ccc(Cl)cc6Cl)O5)cc4)CC3)cc2)c1=O (stereo not shown) [IZ, itraconazole] gave an MIC ([1]; Sensititre YeastOne, Aspergillus niger 1133m clinical isolate, read-out: MIC) of 1 µg/mL (≈ 1.42 µM), an MIC ([2]; Sensititre YeastOne, A. fumigatus 390m clinical isolate, read-out: MIC) of 0.25 µg/mL (≈ 0.354 µM) and an MIC ([3]; Sensititre YeastOne, A. terreus 497 clinical isolate, read-out: MIC) of 0.25 µg/mL (≈ 0.354 µM). For the same compound, the MIC ([4]; Sensititre YeastOne, Candida albicans 1402 clinical isolate, read-out: MIC) was 0.5 µg/mL (≈ 0.709 µM), the MIC ([5]; Sensititre YeastOne, C. glabrata 1402 clinical isolate, read-out: MIC) was > 16 µg/mL and the MIC ([6]; Sensititre YeastOne, C. krusei 1447 clinical isolate, read-out: MIC) was 0.5 µg/mL (≈ 0.709 µM). The MIC ([7]; Sensititre YeastOne, C. tropicalis 156 clinical isolate, read-out: MIC) was > 16 µg/mL, the MIC ([8]; Sensititre YeastOne, C. parapsilosis 571 clinical isolate, read-out: MIC) was 0.5 µg/mL (≈ 0.709 µM) and the MIC ([9]; Sensititre YeastOne, Cryptococcus neoformans 297 clinical isolate, read-out: MIC) was 0.5 µg/mL (≈ 0.709 µM). The MIC ([10]; Sensititre YeastOne, Cr. laurentii 325m clinical isolate, read-out: MIC) was 0.12 µg/mL (≈ 0.17 µM).
